Key:
[1] = Excipient Effect: receiver UV AUC ratio in Double-Sink PAMPA with saturated donor (second embodiment); format: in vitro ADME; conditions: pH 5.0; receiver AUC with excipient / without excipient
Method: The compounds are presented as DMSO solutions with a concentration of about 10 mM. They are further diluted in a universal aqueous buffer and adjusted to pH 5.0, 6.2, and 7.4 with 0.5 M NaOH. The background amount of DMSO in the aqueous solution is 0.5% v/v. Most of the compounds are insoluble in water, where they form saturated solutions with precipitation present. The calculated concentration of the compounds in the buffer is about 50 μM, but because of precipitation, the actual concentrations in the aqueous media must be lower than that, and are unknown. Saturated (non-filtered) solutions are transferred to the donor compartment of the PAMPA sandwich pre-loaded with magnetic stirrers. The filter of the PAMPA filter plate (the acceptor compartment of the PAMPA sandwich) is covered with GIT-lipid and filled with acceptor sink buffer (ASB). […]
Thus, it's not surprising that the absorption behavior for this compound at pH 5.0 is governed by the permeability and that the presence of the excipient in the donor compartment decreases the permeability of Butacaine. The second embodiment of the method of the invention allows detection of this behavior without separate measurements of the solubility and permeability constants, but by simple comparison of the compound concentrations (UV absorbance) in the receiver compartments.

[2] = PAMPA, 30 min, 50 μM
[3] = PAMPA, pH 5
[4] = Double-Sink PAMPA permeability with and without excipients
[5] = equilibrium solubility-pH, direct-UV microtitre plate (μSOL Evolution) with and without excipients; conditions: for solubility at 18 h / pKa at 18 h: aqueous universal buffer (pION); for solubility at 18 h: 25 °C, kinetic from dmso stock; for pKa at 18 h: saturated drug suspension, pKa^APP ± SD

- excipient Effect [1]: < 1
- PABL 0 mM NaTC [2]: 713
- PABL 3 mM NaTC [2]: 954
- PABL 15 mM NaTC [2]: 13
- refined ABL thickness [2]: exceeding 75 μm
- net flux effect due to 1% HP-β-CD [3]: loses at all pH values
- MW*/MW ([4]; 3 mM NaTC (second value)): 2
- MW*/MW ([4]; 15 mM NaTC (third value)): 30000
- MW*/MW ([4]; apparent/true molecular weight, 40 μm ABL assumed, 0 mM NaTC (first value)): 4
- solubility at 18 h ([5]; aqueous with cosolvent or surfactant or cyclodextrin): 0.152 mg/mL
- solubility at 18 h ([5]; pH 5, aqueous buffer): > 50 µM
- pKa at 18 h ([5]; apparent ionization constant in saturated solution, excipient none): 8.8 ± 0.2
- pKa at 18 h ([5]; apparent ionization constant, excipient 3 mM NaTC): 8.9 ± 0.2
- pKa at 18 h ([5]; apparent ionization constant, excipient 15 mM NaTC): 8.5 ± 0.1
- pKa at 18 h ([5]; apparent ionization constant, excipient 0.1M KCl): 8.3 ± 0.3
- pKa at 18 h ([5]; apparent ionization constant, excipient 0.2M KCl): 8.6 ± 0.1
- pKa at 18 h ([5]; apparent ionization constant, excipient 1% HP-b-CD): 8.1 ± 0.1
- pKa at 18 h ([5]; apparent ionization constant, excipient 1% NMP): 8.5 ± 0.1
- pKa at 18 h ([5]; apparent ionization constant, excipient 1% PEG400): 8.5 ± 0.1
- pKa at 18 h ([5]; apparent ionization constant, excipient 1% PG): 8.2 ± 0.1
- pKa at 18 h ([5]; apparent ionization constant, excipient 5% PEG400): 8.5
- pKa at 18 h ([5]; apparent ionization constant, excipient 5% PG): 8.5 ± 0.2
- pKa at 18 h ([5]; apparent ionization constant, excipient […] HP-b-CD): 8.5 ± 0.1
- pKa at 18 h ([5]; apparent ionization constant, excipient […] NMP): 8.8 ± 0.1
- pKa at 18 h ([5]; apparent ionization constant, excipient […] PEG400): 8.5
- pKa at 18 h ([5]; apparent ionization constant, excipient […] PG): 8.8 ± 0.1
- So ± SD ([5]; excipient 3 mM NaTC): 3.1 ± 1.6 µg/mL
- So^APP ± SD ([5]; excipient 3 mM NaTC): 50 ± 10 µg/mL
- So ± SD ([5]; excipient 15 mM NaTC): 2.3 ± 0.4 µg/mL
- So^APP ± SD ([5]; excipient 15 mM NaTC): 96 ± 4 µg/mL
- So ± SD ([5]; excipient 0.1M KCl): 1.3 ± 0.8 µg/mL
- So^APP ± SD ([5]; excipient 0.1M KCl): 83 ± 17 µg/mL
- So ± SD ([5]; excipient 0.2M KCl): 2.5 ± 0.2 µg/mL
- So^APP ± SD ([5]; excipient 0.2M KCl): 78 ± 2 µg/mL
- So ± SD ([5]; excipient 1% HP-b-CD): 1.5 ± 0.4 µg/mL
- So^APP ± SD ([5]; excipient 1% HP-b-CD): 141 ± 7 µg/mL
- So ± SD ([5]; excipient 1% NMP): 1.9 ± 0.5 µg/mL
- So^APP ± SD ([5]; excipient 1% NMP): 71 ± 5 µg/mL
- So ± SD ([5]; excipient 1% PEG400): 2.8 ± 0.4 µg/mL
- So^APP ± SD ([5]; excipient 1% PEG400): 107 ± 2 µg/mL
- So ± SD ([5]; excipient 1% PG): 0.9 ± 0.2 µg/mL
- So^APP ± SD ([5]; excipient 1% PG): 69 ± 5 µg/mL
- So ± SD ([5]; excipient 5% PEG400): 2.8 µg/mL
- So^APP ± SD ([5]; excipient 5% PEG400): 107 µg/mL
- So ± SD ([5]; excipient 5% PG): 1.5 ± 0.5 µg/mL
- So^APP ± SD ([5]; excipient 5% PG): 66 ± 9 µg/mL
- So ± SD ([5]; excipient […] HP-b-CD): 2.0 ± 0.3 µg/mL
- So^APP ± SD ([5]; excipient […] HP-b-CD): 79 ± 4 µg/mL
- So ± SD ([5]; excipient […] NMP): 2.1 ± 0.5 µg/mL
- So^APP ± SD ([5]; excipient […] NMP): 47 ± 3 µg/mL
- So ± SD ([5]; excipient […] PEG400): 3.6 µg/mL
- So^APP ± SD ([5]; excipient […] PEG400): 151 µg/mL
- So ± SD ([5]; excipient […] PG): 2.3 ± 0.5 µg/mL
- So^APP ± SD ([5]; excipient […] PG): 51 ± 4 µg/mL
- So ± SD ([5]; excipient none): 1.9 ± 0.7 µg/mL
- So^APP ± SD ([5]; excipient none): 40 ± 6 µg/mL
- So^APP ± SD ([5]; excipient none, listed as Butacaine): 40 µg/mL
- salt limit (sdiff 3-4 approximation) ([5]; three orders of magnitude above excipient-free intrinsic solubility): 39.8 mg/mL
Compound: CCCCN(CCCC)CCCOC(=O)c1ccc(N)cc1 [butacaine]

Reference: US8175815B2, “Method for assessing absorption properties of low solubility compounds” (F. Hoffmann-La Roche AG, priority 2006, dated 2012)
